Experiments:
[1] = system: red blood cells; conditions: 10 mM dithionite or 20 mM nitrite, cited from earlier work; for cell separation: 1.0 Tesla, 1.0 ml/minute, filtration times of more than one minute; for separation efficiency: 2.0 Tesla, unacceptably variable from sample to sample
[2] = system: blood cells; experiment: Cell integrity during separation (lysis, morphology, clumping, hemoglobin state); type: cell-based, human; conditions: 10 mM sodium dithionite
Experimental: In Table I, the filtration data at 0.75 ml/min is reported for whole blood diluted 1:101 with the working solution including erbium chelate at the indicated concentration. The matrix material was unannealed, 316L austenitic stainless wire, 35 micrometers in diameter, randomly packed to 11.4% of the filter volume. Table I summarizes experimental filtration data according to the concentration of Er(EDTA)^- in the carrier solution, and includes for comparative purposes, sodium dithionite at 10 mM final concentration as a substitute for the chelated lanthanide. The solution osmolarity was adjusted to that of 40 mM erbium chloride by addition of sodium chloride. In a second experiment, 10 mM sodium dithionite in isotonic saline buffered with phosphate was employed. […] Data for various field intensities are given for the higher chelate concentrations, all at constant flows of 0.75 ml/min. Carrier solutions used in each of the stated concentrations of the lanthanide chelate were prepared as described in Example 1.
Cellular hemoglobin remains in the oxygenated (and therefore the antagonistically diamagnetic) state throughout the separation process. Cell lysis was not detected. […] The cells were readily removed from the matrix by flushing with isotonic saline (0.9% NaCl by weight containing no metal chelate). […]

[3] = system: human blood cells (whole blood); experiment: High-gradient magnetic separation (HGMS) filtration of cells from diluted whole blood; type: cell-based; conditions: for Magnetic efficiency, E / Magnetic filtration, M / Mechanical Filtration, F / Total Filtration, T: 0.75 ml/min, 316L matrix
Text: The samples were verified for normalcy (COULTER COUNTER Model S-Plus; Coulter Electronics, Inc.) before use on the day of drawing.
Separability of cells from carrier fluids was examined using a High-Gradient Magnetic Separation (HGMS) system. The filter was a D-shaped plastic chamber 13 mm long and 118 mm^2 in cross-section, filled with stainless steel wire as noted. Packing was random, but with the major component parallel to flow. […] Suspension flows upward through the filter were controlled by a variable-speed syringe pump, fitted with a 3 ml syringe to contain the cell suspension.
Unless otherwise noted, to clean the matrix and to clear the circuit of air, the filter was flushed manually with 15 ml of the experimental carrier solution before each separation determination. With the electromagnet still de-energized, the circuit was then overfilled rapidly with the corresponding cell suspension, and the syringe pump was activated. After 1.2 ml of cell suspension had been delivered at the chosen flow rate, a one-milliliter aliquot (Al) of filter effluent was collected for use in calculating mechanical filtration levels. With filter backflow prevented, the pump syringe was refilled, the magnet energized at the preselected field intensity, and the delivery and collection (aliquot A2) steps repeated. This sequence was repeated for each selected combination of flow rate and field intensity. A 2 ml control aliquot (A3) was taken for each suspension from the reservoir used to fill the filter and the syringe pump. The aliquots were analyzed for cell count and volume, count data (A1, A2, A3) being used to calculate filter characteristics as follows (for percentages, multiply by 100:)
Mechanical Filtration, F=(A3-A1)/A3
Magnetic filtration, M=(A1-A2)/A3
Magnetic efficiency, E=(A1-A2)/A1=M/(1-F)
Total Filtration, T=(A3-A2)/A3=M+F
The solution osmolarity was adjusted to that of 40 mM erbium chloride by addition of sodium chloride. In a second experiment, 10 mM sodium dithionite in isotonic saline buffered with phosphate was employed.
Erbium chloride was dissolved in water via chelation with EDTA. Carrier solutions of 100 cc each, containing erbium chloride in the concentration of 2 mM, 5 mM, 10 mM, 20 mM, 40 mM and 50 mM respectively and EDTA in a molar ratio of 1.1:1 with the erbium chloride were prepared in the following manner for use in obtaining the data reported in Table I.
The volume was then brought to 75 ml with deionized water, and the materials were mixed in a plastic container. The solution pH was adjusted to 7.0 to 7.1 by adding sodium hydroxide solution. The osmolarity was then adjusted to physiological levels of about 300±10 mOs/L, the 100 ml volume being completed with deionized water. Carrier solutions were prepared within two hours of each experiment from stock solutions no more than one week old.
The above procedures were followed substituting the equivalent amount of dysprosium chloride for the erbium chloride in order to obtain the values reported in FIG. 1.

In the case of `O=N[O-].[Na+]` [nitrite, sodium nitrite], the cell separation [1] is listed as “approximately 70%” and the separation efficiency [1] is listed as “exceeding 85%”.

In the case of `O=S([O-])S(=O)[O-].[Na+].[Na+]` [Sodium dithionite, sodium dithionite], the deoxygenation of hemoglobin [2] is reported as “deoxygenation was confirmed spectrophotometrically”, the “Magnetic efficiency, E” value ([3]; 10 mM, 0.30 T) is reported as 13.0% and the “Magnetic filtration, M” value ([3]; 10 mM, 0.30 T) is reported as 11.6%. The “Mechanical Filtration, F” value ([3]; 10 mM, 0.30 T) was 11.0%, the “Total Filtration, T” value ([3]; 10 mM, 0.30 T) was 22.6% and the “Magnetic efficiency, E” value ([3]; 10 mM, 1.00 T) was 76.9%. For the same molecule, the “Magnetic filtration, M” value ([3]; 10 mM, 1.00 T) was 68.4%, the “Mechanical Filtration, F” value ([3]; 10 mM, 1.00 T) was 11.0% and the “Total Filtration, T” value ([3]; 10 mM, 1.00 T) was 79.4%. The “Magnetic efficiency, E” value ([3]; 50 mM, 0.48 T) was 92.2%, the “Magnetic filtration, M” value ([3]; 50 mM, 0.48 T) was 88.2% and the “Mechanical Filtration, F” value ([3]; 50 mM, 0.48 T) was 4.3%. The “Total Filtration, T” value ([3]; 50 mM, 0.48 T) was 92.5%, the “Magnetic efficiency, E” value ([3]; 50 mM, 1.00 T) was 98.4% and the “Magnetic filtration, M” value ([3]; 50 mM, 1.00 T) was 94.1%. For the same molecule, the “Mechanical Filtration, F” value ([3]; 50 mM, 1.00 T) was 4.3%, the “Total Filtration, T” value ([3]; 50 mM, 1.00 T) was 98.4% and the separation efficiency ([3]; 0.3 Tesla, 430 ferritic matrix, 40 mM chelate or 10 mM sodium dithionite, 0.75 ml/min (FIG. 1)) was 37%. For the same molecule, the separation efficiency ([3]; 0.7 Tesla, 430 ferritic matrix, 10 mM sodium dithionite, identical flows) was 90%, the “repeatable separations at efficiencies greater than 99%” value ([3]; 430 ferritic matrix) was “not practical” and the cell separation [1] was “approximately 70%”. The separation efficiency [1] was “exceeding 85%”.
